The test system of data set [1] is HCT116 colon cancer cells. As to the kind of experiment: Colony formation (clonogenic) assay, HCT116, 7 days. As to conditions: 7 days drug exposure, clonogenic assay. The data set is classed as cell-based, human. From the text:
(§1) For the cell culture assays, the human ovarian model A2780/wt and its corresponding cisplatin-resistant subline A2780/cis (both purchased from Sigma and cultured in RPMI1640 medium), the human colorectal cancer model HCT116 (cultured in McCoy′s medium), and the murine (Balb/c) colorectal cancer model CT26 (cultured in DMEM/F-12 (1:1) medium) were used. The colon cancer models were purchased from the American Type Culture Collection (ATCC). The media were supplemented with 10% FCS (purchased from PAA Linz, Austria). To maintain drug resistance of A2780/cis, the subline was cultivated under continuous selection pressure (1 μM cisplatin). The selection drug was removed 1 week before the experiments were performed. Cell cultures were maintained at 37 °C in humidified atmosphere containing 5% CO2. All cultures were free of antibiotics and regularly checked for mycoplasma contamination. All cell culture media and reagents were purchased from Sigma-Aldrich Austria. All investigated drugs were dissolved in either water (oxaliplatin, carboplatin) or DMF before further dilution in cell culture medium. DMF concentrations were always below 0.5%.
(§2) Then, cells were exposed to the indicated drugs in rising concentrations. After 7 days, the cells were fixed with methanol for 20 min at 4 °C and stained with crystal violet 5 (0.01% in PBS). The fluorescence of the crystal violet was detected by the Typhoon scanner (Typhoon TRIO Variable Mode Imager, GE Healthcare Life Sciences) after excitation by the red laser (633 nm). Quantification was done with ImageJ software.

Data set [2] deals with A2780/wt ovarian cancer cells. Kind of data set: MTT-based cell viability assay, A2780/wt, 72 h. More on the design: species or system human. As to conditions: 72 h drug exposure, means of independent experiments.
Description: as §1
(§3) Subsequently, the cells were incubated with the tested compounds in rising concentrations. […] The received data were visualized as dose–response curves by Graph Pad Prism 5 software (Graph Pad software, USA).

The subject of data set [3] is HCT116 colon cancer cells. Kind of data set: MTT-based cell viability assay, HCT116, 72 h. Further details: species or system human. As to conditions: 72 h drug exposure.
Description: as §1, §3

Data set [4] in a line: Reduction of platinum(IV)-succinimide complexes with 10 equiv GSH, UHPLC. As to conditions: 1 mM, 150 mM PB pH 7.4, 20 °C, 6 h. The data set is classed as physicochemical. The text has this: It is well-known that platinum(IV) complexes derived from, e.g., oxaliplatin or carboplatin, bearing leaving groups other than chlorido ligands, have distinctly slower reduction rates compared to cisplatin(IV) analogs.[54] This can be explained by a bridging interaction between the chlorido ligands and the reducing agent, which facilitates electron transfer to the platinum center.[55] […] The reductive behavior was also investigated in the presence of 10 equiv GSH in coherence with the above investigated interactions of platinum(II) with GSH (Figure S8).
(§4) PB (150 mM, pH 7.4) containing 1 mM Pt compound was incubated at 20 °C with and without the addition of 10 equiv L-ascorbic acid or reduced GSH. The reaction was monitored on a Thermo Scientific Dionex UltiMate 3000 UHPLC-system using a Waters Acquity UPLC BEH C18 1.7 μm, 3.0 × 50 mm column. Milli-Q water containing 0.1% formic acid and acetonitrile containing 0.1% formic acid were used as eluents. A gradient of 5–95% over 5 min was used with a flow of 0.6 mL/min. To evaluate the reaction process, we used the peak area of the parental complex.

The subject of data set [5] is A2780/cis ovarian cancer cells. Kind of data set: MTT-based cell viability assay, A2780/cis (cisplatin-resistant), 72 h. Further details: species or system human. As to conditions: for IC50: 72 h drug exposure, cisplatin-resistant subline, means of independent experiments; for IC50 / IC50 in A2780/cis compared to A2780/wt: MTT-based assay; for IC50 in A2780/cis compared to A2780/wt / RF (resistance factor): 72 h; for RF (resistance factor): fold-change between IC50 values of A2780/cis:A2780/wt.
Description: as §1, §3

The test system of data set [6] is CT26 colon cancer cells. Kind of data set: Colony formation (clonogenic) assay, CT26, 7 days. As to conditions: 7 days drug exposure. The data set is classed as cell-based, murine.
Description: as §1, §2

Data set [7] in a line: Reduction kinetics of platinum(IV)-succinimide complexes with AA, UHPLC. As to conditions: 1 mM, 10 equiv AA, 150 mM PB pH 7.4, 20 °C, 6 h. It is filed as physicochemical. Here is the method:
Platinum(IV) prodrugs need to be reduced in the tumor environment to release the cytotoxic platinum(II) complexes. Thus, the reduction properties of Pico-Succ, PicoCarbo-Succ, and PicoOxali-Succ were investigated. As mentioned above, succinimide complexes were used for these studies to avoid competitive hydrolysis of the maleimide moiety. All platinum(IV)-succinimide complexes were incubated in both the absence and presence of a 10-fold excess L-ascorbic acid (AA) in PB at pH 7.4 and 20 °C over 6 h. The amount of remaining intact platinum(IV) complex at given time points was measured via ultrahigh performance liquid chromatography (UHPLC), as shown in Figure 2. Pico-Succ was reduced extremely fast, with only traces of the original complex left in the first measurement after ∼5 min of incubation. Even with equimolar amounts of AA, 90% of Pico-Succ was already reduced after ∼5 min (Figure S6). This level of reductive instability is exceptionally high, even when compared to the “fast” reducing cisplatin(IV) prodrugs, which show a complete conversion after ∼10 h in the presence of 10 equiv AA.[41],[53]
as §4

Data set [8] relates to CT26 colon cancer cells. As to the kind of experiment: MTT-based cell viability assay, CT26, 72 h. Further details: species or system murine. As to conditions: 72 h drug exposure.
Description: as §1, §3

Data set [9] can be described thus: Interaction of platinum(II) complexes with 10 equiv GSH, NMR. It is filed as physicochemical. As to conditions: 1 mM complex, 10% D2O/90% PBS pH 7.4, 37 °C. Here is the method: The amount of remaining platinum(II) complex was monitored via ^1H NMR spectroscopy and, particularly for ^15N-cisplatin, via [^1H, ^15N] heteronuclear single quantum coherence (HSQC) NMR spectroscopy (Figure 1).[47]
(§5) An 1 mM solution of Pt compound was incubated in a mixture of 90% PB or PBS (150 mM, pH 7.4) and 10% D2O at 37 °C with and without the addition of 10 equiv GSH. The reaction was monitored with ^1H or [^1H, ^15N] […] The reference spectrum was shifted with a value of −0.5 ppm compared to the original ppm value calibrated to D2O before overlay with a spectrum at a single time point. In case of ^15N-cisplatin, the cross-peak of the parental complex in [^1H, ^15N] HSQC at time point 0 h was used as reference, and spectral overlay was achieved by shifting the 2D spectra at all given time points (2, 4, 6, and 8 h) with vertical steps of +14 ppm compared to the original ^15N NMR ppm value of the parental complex.

The nature of data set [10]: Stability of platinum(II) complexes in PBS or PB, NMR. The data set is classed as physicochemical. As to conditions: 1 mM, pH 7.4, 37 °C, 8 h incubation, no GSH. Here is the method: as §5
Data set [11] deals with CT26 tumors. As to the kind of experiment: Anticancer activity in vivo, CT26-bearing Balb/c mice. As to conditions: i.v. on days 3 and 10, dose equimolar to 20 mg/kg picoplatin. As for the experimental part:
Ten-week-old Balb/c mice were purchased from Envigo Laboratories (San Pietro al Natisone, Italy). […] Animals were controlled for distress development every day, and tumor size was assessed regularly by caliper measurement. Tumor volume was calculated using the formula: (length × width^2)/2.
CT26 cells (5 × 10^5 in serum-free medium) were injected subcutaneously into the right flank of male Balb/c mice. Therapy was started when tumor nodules were palpable (day 3). […] Mice were sacrificed by cervical dislocation in the case of a tumor length >20 mm, tumor ulceration, or other signs for distress.

In data set [12] the target is albumin (Bos taurus, UniProt P02769). Kind of data set: Albumin binding and stability in phosphate-buffered FCS, SEC-ICP-MS. As to conditions: 50 μM in FCS (150 mM PB, pH 7.4), 37 °C, over 25 h; 195Pt only in LMWF. Here is the method: FCS was purchased from Sigma-Aldrich and buffered with 150 mM phosphate pH 7.4 in order to guarantee a stable pH. The platinum(IV) complexes were dissolved in 150 mM PB (pH 7.4) at a concentration of 5 mM and diluted 1:100 in buffered serum to obtain a final concentration of 50 μM. […] Between each sample, a pure water blank was measured. […] Oxygen (purity 5.5, Messer Austria GmbH, Gumpoldskirchen, Austria) was used as the reaction gas.

Marks after values point to notes of the source that are not given here. Bounds are passed on as bounds.

albumin, sequence (P02769 25-607): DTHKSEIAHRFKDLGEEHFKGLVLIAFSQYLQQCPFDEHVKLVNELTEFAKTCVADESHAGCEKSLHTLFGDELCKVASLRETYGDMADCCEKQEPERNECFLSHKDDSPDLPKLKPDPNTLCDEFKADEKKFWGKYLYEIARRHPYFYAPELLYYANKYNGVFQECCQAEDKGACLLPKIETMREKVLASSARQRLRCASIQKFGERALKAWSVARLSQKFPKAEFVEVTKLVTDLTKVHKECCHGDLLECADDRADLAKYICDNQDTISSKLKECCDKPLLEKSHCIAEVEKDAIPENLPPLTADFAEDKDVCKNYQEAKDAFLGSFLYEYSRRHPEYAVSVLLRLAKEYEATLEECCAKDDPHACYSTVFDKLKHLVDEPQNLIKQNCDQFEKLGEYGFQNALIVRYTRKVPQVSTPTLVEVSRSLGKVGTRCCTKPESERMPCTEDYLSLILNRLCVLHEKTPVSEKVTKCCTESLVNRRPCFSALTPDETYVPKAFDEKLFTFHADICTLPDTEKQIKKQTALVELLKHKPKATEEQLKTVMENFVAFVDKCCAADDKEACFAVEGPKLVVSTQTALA

On to `CC(=O)[O][Pt]1([O]C(=O)NCCN2C(=O)CCC2=O)[O]C(=O)C2(CCC2)C(=O)[O]1.Cc1ccccn1.N` [PicoCarbo-Succ, (OC-6-21)[Acetato(ammine)(cyclobutane-1,1-dicarboxylato)(1-(2-isocyanatoethyl)pyrrolidine-2,5-dione)(2-methylpyridine)platinum(IV)]], for which the IC50 in data set [1], in data set [2], in data set [3], in data set [5], in data set [6] and in data set [8] was more than 100 µM in each case. Further, in [4], the “reduction with 10 equiv GSH over 6 h” value is given as “no notable reduction”. Moreover, in [7], the “intact platinum(IV) complex left after 6 h with AA” value is approximately 90%.
Take `N.N.[Cl][Pt][Cl]` [cisplatin, reference compound]: the half-maximal inhibitory concentration (IC50) is 0.82 µM in [1]; 1.54 µM in data set [2]; 3.15 µM in data set [3]; 7.81 µM in data set [5]; 0.46 µM in data set [6]; 2.17 µM in data set [8]. Further, the “IC50 in A2780/cis compared to A2780/wt” value in data set [5] is recorded as 5.1 fold. Moreover, the “RF (resistance factor)” value in [5] was 5.1****.
On to `[15NH3].[15NH3].[Cl][Pt][Cl]` [^15N-cisplatin, cis-[PtCl2(^15NH3)2]], for which, in [9] (2 h, [1H,15N] HSQC NMR), the “platinum(II) complex left after 2 h with GSH” value was approximately 20%. In addition, in data set [9] (4 h), the “platinum(II) complex reacted with GSH after 4 h” value is given as “nearly complete reaction”. For the same compound, the “complex left in 10% D2O/90% PBS” value in data set [10] is on record as more than 95%.
On to `CC(=O)[O][Pt]1([O]C(=O)NCCN2C(=O)C=CC2=O)[O]C(=O)C2(CCC2)C(=O)[O]1.Cc1ccccn1.N` [PicoCarbo-Mal, (OC-6-21)[Acetato(ammine)(cyclobutane-1,1-dicarboxylato)(1-(2-isocyanatoethyl)-1H-pyrrole-2,5-dione)(2-methylpyridine)platinum(IV)]], for which the “impact on tumor growth” value in data set [11] is given as “significantly inhibited tumor growth”.
With `CC(=O)[O][Pt]1([O]C(=O)NCCN2C(=O)CCC2=O)[O]C(=O)C(=O)[O]1.Cc1ccccn1.N` [PicoOxali-Succ, (OC-6-21)[Acetato(ammine)(1-(2-isocyanatoethyl)pyrrolidine-2,5-dione)(2-methylpyridine)(oxalato)platinum(IV)]], in [12], the albumin conjugation result is recorded as “no albumin conjugation”. Further, the IC50 in data set [1], in data set [2], in data set [3], in [5], in data set [6] and in data set [8] was more than 100 µM throughout. Besides, the “reduction with 10 equiv GSH over 6 h” value in data set [4] is “no notable reduction”. The “intact platinum(IV) complex left after 6 h with AA” value in data set [7] was approximately 70%.
With `Cc1ccccn1.N.O=C1[O][Pt][O]C1=O` [PicoOxali], the IC50 is 15.8 µM in data set [1]; 33.4 µM in data set [2]; more than 100 µM in data set [3]; 46 µM in data set [5]; 7.26 µM in data set [6]; 33.7 µM in [8]. Also, the “IC50 in A2780/cis compared to A2780/wt” value in data set [5] is recorded as 1.4 fold. In addition, the “RF (resistance factor)” value in [5] is listed as 1.4^ns. For the same compound, in data set [10], the “complex left in 10% D2O/90% PB” value is more than 90%. Besides, in [10], the “complex left in 10% D2O/90% PBS” value is “readily degraded”.
Regarding `Cc1ccccn1.N.O=C1[O][Pt][O]C(=O)C12CCC2` [PicoCarbo, (SP-4-4)[(Ammine)(cyclobutane-1,1-dicarboxylato)(2-methylpyridine)platinum(II)]], the IC50 in data set [1] is 90 µM; in [2], more than 100 µM; in data set [3], more than 100 µM; in [5], more than 100 µM; in [6], 26.3 µM; in data set [8], 74.5 µM. The “intact platinum(II) complex left after 8 h with GSH” value in [9] (8 h, 1H NMR) was approximately 90%. For the same compound, the “complex left in 10% D2O/90% PBS” value in data set [10] is listed as more than 95%.
